Measured values published in patent US10221163B2 (priority 2015, dated 2019).
Where a name gives a salt, the structure may show the parent alone. Read-outs that look alike come from different tables or passages of the source.

What was measured:
[1] = tested on: Pseudomonas aeruginosa efflux+ (MB9798), IMP-1; format: cell-based; parameters: Concentration of metallo-β-lactamase inhibitor which restores susceptibility of efflux + (MB9798) strain to imipenem: unit not given here; details: efflux+ MB9798; imipenem at 2 μg/mL; in the presence of a class A, C, D serine β-lactamase inhibitor closely related to relebactam
Procedure, shortened: (§1)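 Steps: add fixed imipenem and/or ceftazidime (usually CLSI breakpoint) and fixed AmpC-directed class A/C inhibitor to microbroth MIC wells; titrate MBL inhibitor; record concentration regaining susceptibility for each PAO1-derived strain; divide efflux+ by efflux− value.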

[2] = tested on: Serratia marcescens expressing IMP-1 (CL5741); format: cell-based; details: IMP-1 strain CL5741, with imipenem 1 μg/ml
Procedure, shortened: (§2)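 Clinical strains grown overnight on blood agar at 35°C, colonies suspended in saline, diluted 1:100 into 1.1×CAMHB. Test compound titrated with imipenem at 1 μg/ml; incubated 22–24 h at 35°C, growth read by absorbance.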

[3] = tested on: Klebsiella pneumoniae expressing VIM-1 (IHMA599644); format: cell-based; details: VIM-1 strain IHMA599644, with imipenem 1 μg/ml
Procedure, shortened: as §2

[4] = tested on: Escherichia coli expressing NDM-1 (CLB30005, CLB30016); format: cell-based; details: NDM-1 strain, with imipenem 1 μg/ml
Procedure, shortened: as §2

IMP-1 = IMP-1 (Serratia marcescens, UniProt P52699); test: biochemical; format: biochemical; details: fluorescence assay, CCF2-FA substrate, 2 pM enzyme, 2 hours at 25° C., read-out: IMP-1 IC50
Sequence of IMP-1 (P52699 whole entry, looked up, species assumed): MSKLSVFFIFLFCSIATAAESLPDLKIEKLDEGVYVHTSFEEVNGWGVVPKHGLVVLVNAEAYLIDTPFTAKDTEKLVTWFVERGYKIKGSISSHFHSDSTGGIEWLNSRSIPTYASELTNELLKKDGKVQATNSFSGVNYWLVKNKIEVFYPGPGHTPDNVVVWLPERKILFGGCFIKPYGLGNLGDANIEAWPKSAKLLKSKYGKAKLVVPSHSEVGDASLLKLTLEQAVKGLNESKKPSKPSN
Procedure, shortened: (§3)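 Semi-log dose-response curves, fitted with a 4-parameter model, gave IC50s. The underlying signal was CCF2-FA fluorescence following 2 hours at 25° C with enzyme, substrate and inhibitor combined.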

NDM-1 = NDM-1 (Klebsiella pneumoniae, UniProt C7C422); test: biochemical; format: biochemical; details: fluorescence assay, CCF2-FA substrate, 1 pM enzyme, 2 hours at 25° C., read-out: NDM-1 IC50
Sequence of NDM-1 (C7C422 whole entry, looked up, species assumed): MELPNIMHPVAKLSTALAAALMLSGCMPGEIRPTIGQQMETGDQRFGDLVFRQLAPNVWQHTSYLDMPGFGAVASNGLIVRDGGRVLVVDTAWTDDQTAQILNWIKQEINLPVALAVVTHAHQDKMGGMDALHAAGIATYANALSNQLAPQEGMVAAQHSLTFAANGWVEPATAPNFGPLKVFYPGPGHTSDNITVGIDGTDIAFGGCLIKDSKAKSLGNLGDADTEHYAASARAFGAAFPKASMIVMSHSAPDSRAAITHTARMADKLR
Procedure, shortened: as §3

[5] = tested on: Pseudomonas aeruginosa MB9798 vs MB9799; details: fold difference between efflux+ (MB9798) and efflux− (MB9799) strains, imipenem at 2 μg/mL
Procedure, shortened: as §1

[6] = tested on: Pseudomonas aeruginosa efflux− (MB9799), IMP-1; format: cell-based; details: efflux− MB9799, imipenem at 2 μg/mL, in the presence of a class A, C, D serine β-lactamase inhibitor closely related to relebactam
Procedure, shortened: as §1

VIM-1 = VIM-1 (Pseudomonas aeruginosa (strain ATCC 15692 / DSM 22644 / CIP 104116 / JCM 14847 / LMG 12228 / 1C / PRS 101 / PAO1), UniProt A0A0F7KYQ8); test: biochemical; details: CCF2-FA substrate, 30 pM enzyme, 2 hours at 25° C.
Procedure, shortened: as §3

[7] = fluorescence assay, read-out: VIM-1 IC50
[8] = 95% inhibition of bacterial growth

| Structure (SMILES) | Concentration of metallo-β-lactamase inhibitor which restores susceptibility of efflux + (MB9798) strain to imipenem [1] | Serratia marcescens MITC95 ([2]; 95% inhibition of growth) [µM] | Klebsiella pneumoniae MITC95 ([3]; 95% inhibition of growth) [µM] | Escherichia coli MITC95 ([4]; 95% inhibition of growth) [µM] | IC50 (IMP-1) [nM] | IC50 (NDM-1) [nM] | Efflux ratio [5] | Concentration of metallo-β-lactamase inhibitor which restores susceptibility of efflux − (MB9799) strain to imipenem [6] | IC50 (VIM-1; read-out: VIM-1 IC50, fluorescence assay) [nM] | IC50 (VIM-1; [7]) [nM] | Escherichia coli MITC95 ([4]; 95% inhibition of growth, dihydrochloride) [µM] | IC50 (IMP-1; dihydrochloride) [nM] | IC50 (NDM-1; dihydrochloride) [nM] | Efflux ratio ([5]; dihydrochloride) | Concentration of metallo-β-lactamase inhibitor which restores susceptibility of efflux − (MB9799) strain to imipenem ([6]; dihydrochloride) | IC50 (VIM-1; VIM-1 IC50, fluorescence assay) [nM] | Serratia marcescens MITC95 [2, 8] [µM] | Klebsiella pneumoniae MITC95 [3, 8] [µM] | Escherichia coli MITC95 [4, 8] [µM] |
| --- | --- | --- | --- | --- | --- | --- | --- | --- | --- | --- | --- | --- | --- | --- | --- | --- | --- | --- | --- |
| Nc1ccc(-c2ccc(S(=O)(=O)NC3CC(N)C3)c(S(N)(=O)=O)c2-c2nn[nH]n2)cn1 [Example 483, N1-((1R,3R)-3-aminocyclobutyl)-4-(6-aminopyridin-3-yl)-3-(2H-tetrazol-5-yl)benzene-1,2-disulfonamide] | 0.7813 | 0.7813 | 1.563 | 1.758 | 0.33 | 0.0927 | 1.00 | 0.7813 | 0.115 | – | – | – | – | – | – | – | – | – | – |
| Nc1ccc(-c2ccc(S(=O)(=O)NC[C@H]3CCNC3)c(S(N)(=O)=O)c2-c2nn[nH]n2)cn1 [Example 484, (S)-4-(6-aminopyridin-3-yl)-N1-(pyrrolidin-3-ylmethyl)-3-(2H-tetrazol-5-yl)benzene-1,2-disulfonamide] | 0.7813 | 0.3906 | 3.125 | 0.1953 | 0.248 | 0.102 | 1.00 | 0.7813 | – | 0.131 | – | – | – | – | – | – | – | – | – |
| Nc1ccc(-c2ccc(S(=O)(=O)N3CCNCC3)c(S(N)(=O)=O)c2-c2nn[nH]n2)cn1 [Example 485, 3-(6-aminopyridin-3-yl)-6-(piperazin-1-ylsulfonyl)-2-(2H-tetrazol-5-yl)benzenesulfonamide] | 6.25 | 0.7813 | 1.563 | 0.1953 | 3.58 | 2.22 | 8.00 | 0.7813 | – | 2.3 | – | – | – | – | – | – | – | – | – |
| NC[C@@]1(NS(=O)(=O)c2ccc(-c3ccc(N)nc3)c(-c3nn[nH]n3)c2S(N)(=O)=O)CCNC1 [Example 487, (S)-N1-(3-(aminomethyl)pyrrolidin-3-yl)-4-(6-aminopyridin-3-yl)-3-(2H-tetrazol-5-yl)benzene-1,2-disulfonamide dihydrochloride] | 1.563 | 0.7813 | 1.563 | – | – | – | – | – | – | – | 0.3906 | 0.803 | 0.274 | 1.00 | 1.563 | 0.527 | – | – | – |
| Nc1ccc(-c2ccc(S(=O)(=O)NC[C@@H]3CCCN3)c(S(N)(=O)=O)c2-c2nn[nH]n2)cn1 [Example 488, (S)-4-(6-aminopyridin-3-yl)-N1-(pyrrolidin-2-ylmethyl)-3-(2H-tetrazol-5-yl)benzene-1,2-disulfonamide] | 0.7813 | 0.1953 | 1.563 | 0.1953 | 0.355 | 0.206 | 1.00 | 0.7813 | – | 0.21 | – | – | – | – | – | – | – | – | – |
| Nc1ccc(-c2ccc(S(=O)(=O)NC[C@H]3CCCN3)c(S(N)(=O)=O)c2-c2nn[nH]n2)cn1 [Example 489, (R)-4-(6-aminopyridin-3-yl)-N1-(pyrrolidin-2-ylmethyl)-3-(2H-tetrazol-5-yl)benzene-1,2-disulfonamide] | 1.563 | 0.3906 | 1.563 | 0.3906 | 0.566 | 0.246 | 2.00 | 0.7813 | – | 0.267 | – | – | – | – | – | – | – | – | – |
| Nc1ccc(-c2ccc(S(=O)(=O)NC[C@@H]3CCNC3)c(S(N)(=O)=O)c2-c2nn[nH]n2)cn1 [Example 491, (R)-4-(6-aminopyridin-3-yl)-N1-(pyrrolidin-3-ylmethyl)-3-(2H-tetrazol-5-yl)benzene-1,2-disulfonamide] | 0.7813 | 0.7813 | 1.563 | 0.1953 | 0.271 | 0.0939 | 1.00 | 0.7813 | – | 0.132 | – | – | – | – | – | – | – | – | – |
| Nc1ccc(-c2ccc(S(=O)(=O)NCC3(O)CCNCC3)c(S(N)(=O)=O)c2-c2nn[nH]n2)cn1 [Example 492, 4-(6-aminopyridin-3-yl)-N1-((4-hydroxypiperidin-4-yl)methyl)-3-(2H-tetrazol-5-yl)benzene-1,2 disulfonamide] | 1.563 | 1.563 | 3.125 | 0.3906 | 0.52 | 0.305 | 1.00 | 1.563 | – | – | – | – | – | – | – | 0.24 | – | – | – |
| Nc1ccc(-c2ccc(S(=O)(=O)NC3CNC3)c(S(N)(=O)=O)c2-c2nn[nH]n2)cn1 [Example 493, 4-(6-aminopyridin-3-yl)-N1-(azetidin-3-yl)-3-(2H-tetrazol-5-yl)benzene-1,2-disulfonamide] | 0.3906 | 0.3906 | 1.563 | 0.3906 | 0.403 | 0.189 | 0.50 | 0.7813 | – | 0.179 | – | – | – | – | – | – | – | – | – |
| Nc1ccc(-c2ccc(S(=O)(=O)NCC3(O)CNC3)c(S(N)(=O)=O)c2-c2nn[nH]n2)cn1 [Example 495, 4-(6-aminopyridin-3-yl)-N1-((3-hydroxyazetidin-3-yl)methyl)-3-(2H-tetrazol-5-yl)benzene-1,2-disulfonamide] | 0.7813 | 0.7813 | 1.563 | 0.1953 | 0.328 | 0.215 | 1.00 | 0.7813 | – | 0.301 | – | – | – | – | – | – | – | – | – |
| Cl.Cl.NCCCNS(=O)(=O)c1ccc(-c2ccc(N)nc2)c(-c2nn[nH]n2)c1S(N)(=O)=O [Example 496, N1-(3-aminopropyl)-4-(6-aminopyridin-3-yl)-3-(2H-tetrazol-5-yl)benzene-1,2-disulfonamide hydrogen chloride] | 0.7813 | – | – | – | 0.576 | 0.2 | 1.00 | 0.7813 | – | 0.175 | – | – | – | – | – | – | 0.7813 | 1.563 | 0.09766 |
